Assay results: US12611439B2, “Ionic self-assembling peptides” (3-D MATRIX, LTD., priority 2018, dated 2026)
Peptide text beside a SMILES is read from it.

Assays:
[1] = Net charge of self-assembling peptides in solution; format: physicochemical; conditions: for net charge as a function of pH: around neutral pH; for Net charge at pH 7.5: in solution at pH 7.5
Excerpt: Several exemplary self-assembling peptides described herein (Table 5; SEQ ID NO:21-40) were designed to have a net charge, positive or negative, when formulated at pH 7.5. In contrast, previously-described self-assembling peptides have a net zero charge at the same pH.

[2] = Viscosity determination at increasing shear rate (shear thinning); format: physicochemical; conditions: pH 7.5
Protocol: Peptides formulated as aqueous solutions (200 μL), were placed between the plates of a rheometer (DHR-1, TA Instruments, 20 mm plates at a measuring geometry of 500 μm) and the viscosity was measured from 0.001 s^−1 to 100 s^−1 shear rate. Thixotropic Measurements
In some clinical applications, administration of pharmaceutical compositions comprising self-assembling peptides requires exposing the compositions to pressure and/or shear thinning (e.g., during injection through a syringe needle or transferred via a pump-based system). […] To determine the shear thinning properties of pharmaceutical compositions of the self-assembling peptides formulated at pH 7.5, formulations comprising varying ionic strengths were prepared using different concentrations of sodium chloride, and viscosity measured at increasing shear rates. Thixotropic properties of formulations were also determined as well as the storage modulus over time at specific frequencies and pressure.
FIGS. 6-8 show the experimentally determined viscosity of aqueous pharmaceutical compositions comprising either 1% (w/v) KLNL12 (SEQ ID NO:21), 1% (w/v) IQIK13 (SEQ ID NO:28), or 1% (w/v) NLEL12 (SEQ ID NO:33), at pH 7.5. FIGS. 9 and 10 show the experimentally determined viscosity of aqueous pharmaceutical compositions comprising either 1% KLNL12 (SEQ ID NO:21) or 1% NLEL12 (SEQ ID NO:33), and 0.9% NaCl (to mimic physiological conditions) at pH 7.5. […] That is, decreased viscosity with increasing sheer rate. This property may advantageously facilitate application and use of the pharmaceutical compositions (e.g., due to decreased viscosity while pumping) while maintaining a desirable viscosity at a site of application (e.g., where no sheer force is being applied).

[3] = Thixotropic measurements (storage modulus after shear); format: physicochemical; conditions: 1% peptide, 0.9% NaCl, pH 7.5; 1000 1/s shear for 1 min
Protocol: Peptides formulated as aqueous solutions (200 μL), were placed between the plates of a rheometer (DHR-1, TA Instruments, 20 mm plates at a measuring geometry of 500 μm) and the sample was exposed to a fast plate rotation at 1000 s^−1 of shear rate for 1 minute and the storage modulus was measured at 1 rad s^−1 angular frequency for 10 minutes.
FIGS. 11 and 12 show the thixotropic properties of pharmaceutical compositions comprising 1% KLNL12 (SEQ ID NO:21) or 1% NLEL12 (SEQ ID NO:33), and 0.9% NaCl, at pH 7.5, after shear stress is removed. The aqueous pharmaceutical compositions were flowed at 1000 l/s of shear rate for 1 min and their storage modulus at 10 rad/s of frequency and at 0.1 Pa of stress was tested over time.

[4] = Frequency sweep test (storage modulus) before and after exposure to DMEM; format: physicochemical; conditions: 1% (w/v) peptide, pH 7.5
Protocol: Peptides formulated as aqueous solutions were placed between the plates of a rheometer (DHR-1, TA Instruments, 20 mm plates at a measuring geometry of 500 μm or 40 mm cone and plate at a measuring geometry of 2.0° of cone angle) and frequency stress sweep tests were performed at 0.1 Hz to 10 Hz of frequency with 0.1% of strain; measurements were performed after 2 minutes of relaxation time at 37° C. To do frequency sweep tests after exposure to Dulbecco's Modified Eagle Medium (DMEM), 10 mL of DMEM was added in chamber surrounding the plates, the sample in plates was submerged into the DMEM and the frequency test was performed as described after 20 minutes.
Rheological properties of aqueous pharmaceutical compositions comprising the exemplary self-assembling peptides KLNL12 (SEQ ID NO:21), KIQI13 (SEQ ID NO:29), or NLEL12 (SEQ ID NO:33) were determined by performing a frequency sweep test over storage modulus.
In some embodiments, peptides formulated as aqueous solutions, volume 700 μl, were placed between the plates of a rheometer (DHR-1, TA Instruments, 40 mm cone and plate at a measuring geometry of 2.0° of cone angle) and frequency sweep tests were performed at 0.1 Hz to 10 Hz of frequency with 0.1% of strain; measurements were performed after 2 minutes of relaxation time at 37° C. In some embodiments, frequency sweep tests were performed after exposure to Dulbecco's Modified Eagle Medium (DMEM), where 10 mL of DMEM was added in chamber surrounding the plates, the sample in plates was submerged into the DMEM and the frequency test was performed as described after 20 minutes.

pig stomach submucosa = assay: Submucosal injection in in vivo porcine model, stomach; conditions: 2 mL of 0.1% (w/v) peptide, 0.9% NaCl, pH 7.5; pig stomach
Protocol: An in vivo porcine animal model was used to perform endoscopic mucosal and submucosal dissections as described in Uraoka et al. (2009) Drug Des. Devel. Ther. 2:131-8, incorporated herein by reference. Briefly, 2 mL of select peptide formulations were injected in between the […] in stomach of a pig and the submucosa was dissected using electro-knife. The gross appearance of the injection site and of dissected submucosal tissues at the injection sites were analyzed. […] Therefore, an in vivo porcine model system was used to assess the ability of these compositions to induce submucosal elevation upon injection into gastrointestinal submucosa, and the degree of tissue damage. In this model, submucosal injections with liquid compositions were performed and the morphology of the site of injection analyzed. Submucosal injection with aqueous solutions is used during the excision of lesions from the gastrointestinal tract in order to facilitate removal of the lesion by providing a safety cushion during resection (see, e.g., Kim et al. (2013) World J. Gastroenterol. 19(20): 3069-76, incorporated herein by reference). Here, aqueous pharmaceutical compositions comprising three exemplary self-assembling peptides formulated at pH 7.5: KLNL12 (SEQ ID NO:21), NLKL12 (SEQ ID NO:23) or KIQI13 (SEQ ID NO:29), were compared to an aqueous pharmaceutical composition comprising the previously described RADA16 self-assembling peptide (formulated at pH 2.5), a 0.4% solution of sodium hyaluronate (MucoUp®, Boston Scientific Japan K.K., Tokyo, Japan), and saline, pH 7.5.

porcine esophagus mucosa = assay: Submucosal injection in in vivo porcine esophagus; conditions: pig, in vivo
Protocol: In another embodiment, mucosal aggregation visualized as white precipitate near the injection site was evaluated in an in vivo porcine esophagus.

CC(=O)N[C@@H](CCCCN)C(=O)N[C@@H](CC(C)C)C(=O)N[C@@H](CC(N)=O)C(=O)N[C@@H](CC(C)C)C(=O)N[C@@H](CCCCN)C(=O)N[C@@H](CC(C)C)C(=O)N[C@@H](CC(N)=O)C(=O)N[C@@H](CC(C)C)C(=O)N[C@@H](CCCCN)C(=O)N[C@@H](CC(C)C)C(=O)N[C@@H](CC(N)=O)C(=O)N[C@@H](CC(C)C)C(N)=O [KLNL12, Ac-KLNLKLNLKLNL-NH2] (Ac-KLNLKLNLKLNL-NH2)
net charge as a function of pH [1]: about +3 | Net charge at pH 7.5 [1]: +3 | viscosity in response to increasing shear rate ([2]; 1% (w/v) peptide): exhibit sheer thinning | viscosity in response to increasing shear rate ([2]; 1% peptide, 0.9% NaCl): exhibit sheer thinning | thixotropic properties (storage modulus over time after shear stress is removed) [3]: exhibited thixotropic properties | rheological properties (mechanical strength) before and after exposure to DMEM ([4]; 0.9% NaCl): increased after DMEM treatment | rheological properties (mechanical strength) before and after exposure to DMEM [4]: increased after DMEM treatment | submucosal elevation after injection (pig stomach submucosa): resulted in submucosal elevation | submucosal elevation over time compared with saline and MucoUp (pig stomach submucosa): better submucosal elevation than saline and MucoUp®

CC(=O)N[C@@H](CC(N)=O)C(=O)N[C@@H](CC(C)C)C(=O)N[C@@H](CCC(=O)O)C(=O)N[C@@H](CC(C)C)C(=O)N[C@@H](CC(N)=O)C(=O)N[C@@H](CC(C)C)C(=O)N[C@@H](CCC(=O)O)C(=O)N[C@@H](CC(C)C)C(=O)N[C@@H](CC(N)=O)C(=O)N[C@@H](CC(C)C)C(=O)N[C@@H](CCC(=O)O)C(=O)N[C@@H](CC(C)C)C(N)=O [NLEL12, Ac-NLELNLELNLEL-NH2] (Ac-NLELNLELNLEL-NH2)
net charge as a function of pH [1]: about −3 | Net charge at pH 7.5 [1]: −3 | viscosity in response to increasing shear rate ([2]; 1% (w/v) peptide): exhibit sheer thinning | viscosity in response to increasing shear rate ([2]; 1% peptide, 0.9% NaCl): exhibit sheer thinning | thixotropic properties (storage modulus over time after shear stress is removed) [3]: exhibited thixotropic properties | rheological properties (mechanical strength) before and after exposure to DMEM ([4]; 0.9% NaCl): increased after DMEM treatment | rheological properties (mechanical strength) before and after exposure to DMEM [4]: increased after DMEM treatment | mucosal aggregation at injection sites (porcine esophagus mucosa): mucosal aggregation was not observed | Appearance of stomach mucosa (porcine esophagus mucosa; pH 7.5): clear/transparent
